Tests used:
[1] = test system: male SD rats; assay: Hypolipidemic activity (serum cholesterol and serum triglyceride in rats fed diet containing test compound); type: in vivo; details: test compound 50 mg % in diet, ad libitum for one week, group of 5
Experimental: A test compound (50 mg %) was added to a commercial diet, and male SD rats (body weight: 120 - 140 g, a group of 5 rats) were fed with the diet ad libitum for one week. After the experimental period, blood was collected from the tail vein of the rats under ether anesthesia. Then, serum cholesterol and serum triglyceride were measured according to the methods of Zak (Amr. J. Clin, Pathol., Vol. 24, page 1307 (1954)) and Van Handel-Silversmit (J. Lab. & Clin. Med., Vol. 50, page 152 (1957)), respectively. Based on the results obtained above, the decrease (%) in serum cholesterol or triglyceride were calculated by the following formula: [formula]

[2] = test system: platelet aggregation; assay: Platelet aggregation-inhibiting activity (collagen-induced aggregation in platelet-rich plasma); type: cell-based, rats; details: final concentration: 100 µg/ml, rat PRP, 37°C
Experimental: Blood was collected from the abdominal aorta of male SD rats (body weight: 250 - 300 g) which were anesthetized with ether. Nine volumes of said blood were mixed with one volume of an aqueous 3.8 % (w/v) trisodium citrate solution, and the mixture was centrifuged at 500 x g for 5 minutes to give platelet-rich plasma (hereinafter referred to as "PRP") as the supernatant solution. The bottom layer was further centrifuged at 1000 x g for 10 minutes to give platelet-poor plasma (hereinafter referred to as "PPP") as the supernatant solution. PRP was diluted with PPP so that the blood platelet count was 8 - 10 x 10 /mm . Then, a mixture of 200 µl of said diluted PRP and 25 µl of a test compound solution (final concentration: 100 µg/ml) was introduced into a glass cell of SIENCO aggregometer (Sienco Inc., Morrison, Colo. Model DP-247-D). After the mixture was stirred at 1100 rpm at 37°C for 2 minutes, 25 µl of a collagen solution (prepared by Holmsen's method described in Biochim. Biophys. Acta, Vol. 186, page 254(1969)) was added thereto, and the percentage inhibition of platelet aggregation was calculated in accordance with the following formula from the degree of the platelet aggregation which was estimated by Born's method (Nature, 194, page 927[…]). [formula]

Row | SMILES | Decrease (%) in serum choles-terol [1] [%] | Decrease (%) in serum trigly-ceride [1] [%] | inhibition at 100 µg/mL [2] [%]
1 | CCOC(=O)C(C)(C)Oc1ccc(Cl)cc1 [Clofibrate, 2-(4-chlorophenoxy)-2-methylpropanoic acid ethyl ester, reference compound] | 15 | 16 | < 10
2 | CCOC(=O)C(C)c1nc(-c2ccc(Cl)cc2)oc1-c1ccoc1 (stereo not shown) [Ethyl 2-[2-(4-chlorophenyl)-5-(3-furyl)-4-oxazolyl]-propionate] | 22 | 45 | ≥ 10
3 | CC(C(=O)O)c1nc(-c2ccc(Cl)cc2)oc1-c1ccco1 (stereo not shown) [2-[2-(4-chlorophenyl)-5-(2-furyl)-4-oxazolyl]-propionic acid] | 14 | 34 | –
4 | CCOC(=O)C(C)c1nc(-c2ccc(Cl)cc2)oc1-c1ccco1 (stereo not shown) [Ethyl 2-[2-(4-chlorophenyl)-5-(2-furyl)-4-oxazolyl]-propionate] | 15 | 22 | ≥ 10
5 | CC(C)(C(=O)O)c1nc(-c2ccc(Cl)cc2)oc1-c1ccco1 [2-[2-(4-chlorophenyl)-5-(2-furyl)-4-oxazolyl]-2-methylpropionic acid] | 16 | 54 | –

— patent publication EP0120270A2, “Furyloxazolylacetic acid derivative, processes for preparing same and pharmaceutical composition” (Tanabe Seiyaku Co., Ltd., priority 1983, dated 1984)
